Experiments:
JAK = assay: Biochemical Kinase Assay Protocol (JAK); conditions: compound list; + = noted target activity, number of * = preference
Description: Biochemical Kinase Assay Protocol (JAK, TrkA, Syk, Tyk2)
Reagent: Base Reaction buffer; 20 mM Hepes (pH 7.5), 10 mM MgCl2, 1 mM EGTA, 0.02% Brij™ 35, 0.02 mg/ml BSA, 0.1 mM Na3VO4, 2 mM DTT, 1% DMSO, where required cofactors are added individually to each kinase reaction.
• 1. Prepare indicated substrate in freshly prepared Base Reaction Buffer • 2. Deliver any required cofactors to the substrate solution above • 3. Deliver indicated kinase (JAK or TrkA) into the substrate solution and gently mix • 4. Deliver compounds in DMSO into the kinase reaction mixture by Acoustic technology (Echo550; nanoliter range), incubate for 20 minutes at room temperature • 5. Deliver 33P-ATP into the reaction mixture to initiate the reaction. • 6. Incubate kinase reaction for 2 hours at room temperature • 7. Reactions are spotted onto P81 ion exchange paper • 8. Detect kinase activity by filter-binding method. PDE4B Phosphodiesterase Assay

Recombinant human PDE4B = biological target: T1, Recombinant human PDE4B (Homo sapiens, UniProt Q07343); assay: PDE4B Phosphodiesterase Assay; assay type: biochemical; parameters: key to Activity Note: PDE4: The (+) symbols identify a compound of the present disclosure with the noted target activity; +*: The (*) symbols indicate preferential activity, where the greater number identifies the most preferred compounds; +**: The (*) symbols indicate preferential activity, where the greater number identifies the most preferred compounds; +***: The (*) symbols indicate preferential activity, where the greater number identifies the most preferred compounds; conditions: compound list; + = noted target activity
T1 construct: aa 305-end; GST (N); made in house; host or cells: Sf9 insect cells (baculovirus)
T1 sequence (Q07343 305-736 limits assumed): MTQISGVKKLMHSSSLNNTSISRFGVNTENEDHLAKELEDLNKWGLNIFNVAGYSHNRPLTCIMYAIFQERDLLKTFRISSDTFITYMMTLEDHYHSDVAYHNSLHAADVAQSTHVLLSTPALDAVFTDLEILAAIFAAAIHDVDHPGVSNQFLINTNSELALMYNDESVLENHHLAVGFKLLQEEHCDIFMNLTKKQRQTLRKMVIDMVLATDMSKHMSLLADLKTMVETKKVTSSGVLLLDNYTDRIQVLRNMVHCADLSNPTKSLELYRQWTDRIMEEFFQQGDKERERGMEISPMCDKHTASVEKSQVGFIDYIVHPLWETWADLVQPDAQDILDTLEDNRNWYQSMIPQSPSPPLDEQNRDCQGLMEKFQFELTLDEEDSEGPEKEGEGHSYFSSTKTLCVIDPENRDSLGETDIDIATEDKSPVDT
Description: The assay is based on the fluorescence polarization measuring AMP/GMP production as a result of the enzyme activity by displacement of Tracer binding to the AMP/GMP antibody. • Reaction Buffer: 10 mM Tris-HCl, pH 7.5, 5 mM MgCl2, 0.01% Brij 35, 1 mM DTT and 1% DMSO. • Enzyme: Recombinant human PDE4B (Gene Accession #NM_002600; aa 305-end) was expressed by baculovirus in Sf9 insect cells using an N-terminal GST tag. Mw=78 kDa. • Substrate: 1 μM cAMP • Detection: Transcreener® AMP2/GMP2 Antibody AMP2/GMP2 AlexaFluor 633 Tracer Reaction Procedure: • 1. Prepared indicated enzyme and substrate in freshly prepared Reaction Buffer • 2. Delivered enzyme solution into the reaction well • 3. Delivered compounds in 100% DMSO into the enzyme solution by Acoustic technology (Echo550; nanoliter range), incubated for 10 min at room temperature • 4. Delivered substrate solution into the reaction well to initiate the reaction • 5. Incubated for 1 h at room temperature • 6. Added detection mixture (Tracer and antibody in the stop buffer) to stop the reaction and incubated for 90 min with gentle mixing. The fluorescence polarization was measured at Ex/Em 620/688.
Data Analysis: The FP signals were converted into nM product based on an AMP/GMP standard curve and calculated % Enzyme activity relative to DMSO control by Excel. The curve fit was performed using GraphPad prism.

Compound | Activity Note: JAK (JAK) | Activity Note: PDE4 (Recombinant human PDE4B)
CCC(CC)Nc1nc(Nc2cc(C)c3c(c2)C(C)(C)OB3O)ncc1C [3,3,7-trimethyl-5-((5-methyl-4-(pentan-3-ylamino)pyrimidin-2-yl)amino)benzo[c][1,2]oxaborol-1(3H)-ol] | JAK+*** | 
Cc1cnc(Nc2cc(C)c3c(c2)C(C)(C)OB3O)nc1Nc1ccccc1 [3,3,7-trimethyl-5-((5-methyl-4-(phenylamino)pyrimidin-2-yl)amino)benzo[c][1,2]oxaborol-1(3H)-ol] | JAK+*** | 
CCC(CC)Nc1nc(Nc2ccc3c(c2)C(C)(C)OB3O)ncc1C [3,3-dimethyl-5-((5-methyl-4-(pentan-3-ylamino)pyrimidin-2-yl)amino)benzo[c][1,2]oxaborol-1(3H)-ol] | JAK+*** | 
Cc1cnc(Nc2ccc3c(c2)C(C)(C)OB3O)nc1Nc1ccccc1 [3,3-dimethyl-5-((5-methyl-4-(phenylamino)pyrimidin-2-yl)amino)benzo[c][1,2]oxaborol-1(3H)-ol] | JAK+*** | 
Cc1cnc(Nc2ccc3c(c2)B(O)OC3(C)C)nc1Nc1cccc(S(C)(=O)=O)c1 [3,3-dimethyl-6-((5-methyl-4-((3-(methylsulfonyl)phenyl)amino)pyrimidin-2-yl)amino)benzo[c][1,2]oxaborol-1(3H)-ol] | JAK+** | 
CCC(CC)Nc1nc(Nc2cc(C)c3c(c2)C(C)OB3O)ncc1C (centres unmarked) [3,7-dimethyl-5-((5-methyl-4-(pentan-3-ylamino)pyrimidin-2-yl)amino)benzo[c][1,2]oxaborol-1(3H)-ol] | JAK+*** | 
CCC(CC)Nc1nc(Nc2ccc3c(c2)C(C)OB3O)ncc1C (centres unmarked) [3-methyl-5-((5-methyl-4-(pentan-3-ylamino)pyrimidin-2-yl)amino)benzo[c][1,2]oxaborol-1(3H)-ol] | JAK+*** | 
Cc1cnc(Nc2ccc3c(c2)C(C)OB3O)nc1Nc1ccccc1 (centres unmarked) [3-methyl-5-((5-methyl-4-(phenylamino)pyrimidin-2-yl)amino)benzo[c][1,2]oxaborol-1(3H)-ol] | JAK+*** | 
Cc1cnc(Nc2ccc3c(c2)C(C)(C)OB3O)nc1NC1CCCC1 [5-((4-(cyclopentylamino)-5-methylpyrimidin-2-yl)amino)-3,3-dimethylbenzo[c][1,2]oxaborol-1(3H)-ol] | JAK+*** | 
Cc1cnc(Nc2ccc3c(c2)C(C)OB3O)nc1NC1CCCC1 (centres unmarked) [5-((4-(cyclopentylamino)-5-methylpyrimidin-2-yl)amino)-3-methylbenzo[c][1,2]oxaborol-1(3H)-ol] | JAK+*** | 
Cc1cnc(Nc2cc(C)c3c(c2)COB3O)nc1NC1CCCC1 [5-((4-(cyclopentylamino)-5-methylpyrimidin-2-yl)amino)-7-methylbenzo[c][1,2]oxaborol-1(3H)-ol] | JAK+*** | 
CCc1cc(Nc2nccc(NC3CCCC3)n2)cc2c1B(O)OC2 [5-((4-(cyclopentylamino)pyrimidin-2-yl)amino)-7-ethylbenzo[c][1,2]oxaborol-1(3H)-ol] | JAK+** | 
Cc1cc(Nc2ncc(Cl)c(NC3CCCC3)n2)cc2c1B(O)OC2(C)C [5-((5-chloro-4-(cyclopentylamino)pyrimidin-2-yl)amino)-3,3,7-trimethylbenzo[c][1,2]oxaborol-1(3H)-ol] | JAK+*** | 
CC1(C)OB(O)c2ccc(Nc3ncc(Cl)c(NC4CCCC4)n3)cc21 [5-((5-chloro-4-(cyclopentylamino)pyrimidin-2-yl)amino)-3,3-dimethylbenzo[c][1,2]oxaborol-1(3H)-ol] | JAK+*** | 
CC1OB(O)c2ccc(Nc3ncc(Cl)c(NC4CCCC4)n3)cc21 (centres unmarked) [5-((5-chloro-4-(cyclopentylamino)pyrimidin-2-yl)amino)-3-methylbenzo[c][1,2]oxaborol-1(3H)-ol] | JAK+*** | 
OB1OCc2cc(Nc3ncc(Cl)c(NC4CCCC4)n3)cc(C(F)(F)F)c21 [5-((5-chloro-4-(cyclopentylamino)pyrimidin-2-yl)amino)-7-(trifluoromethyl)benzo[c][1,2]oxaborol-1(3H)-ol] | JAK+*** | 

Compound | Activity Note: JAK (JAK) | Activity Note: PDE4 (Recombinant human PDE4B)
CCC(Nc1nc(Nc2ccc3c(c2)COB3O)ncc1C)c1ccccc1 (centres unmarked) [5-((5-methyl-4-((1-phenylpropyl)amino)pyrimidin-2-yl)amino)benzo[c][1,2]oxaborol-1(3H)-ol] |  | +
Cc1cnc(Nc2ccc3c(c2)COB3O)nc1Nc1ccccc1OC(F)(F)F [5-((5-methyl-4-((2-(trifluoromethoxy)phenyl)amino)pyrimidin-2-yl)amino)benzo[c][1,2]oxaborol-1(3H)-ol] |  | +
Cc1cnc(Nc2ccc3c(c2)COB3O)nc1Nc1ccccc1C(F)(F)F [5-((5-methyl-4-((2-(trifluoromethyl)phenyl)amino)pyrimidin-2-yl)amino)benzo[c][1,2]oxaborol-1(3H)-ol] |  | +
Cc1cnc(Nc2ccc3c(c2)COB3O)nc1NC1CCCC(C)C1 (centres unmarked) [5-((5-methyl-4-((3-methylcyclohexyl)amino)pyrimidin-2-yl)amino)benzo[c][1,2]oxaborol-1(3H)-ol] |  | +
Cc1cnc(Nc2ccc3c(c2)COB3O)nc1NC1CCC(C)CC1 (centres unmarked) [5-((5-methyl-4-((4-methylcyclohexyl)amino)pyrimidin-2-yl)amino)benzo[c][1,2]oxaborol-1(3H)-ol] |  | +
Cc1ccccc1Nc1nc(Nc2ccc3c(c2)COB3O)ncc1C [5-((5-methyl-4-(o-tolylamino)pyrimidin-2-yl)amino)benzo[c][1,2]oxaborol-1(3H)-ol] |  | +
CCC(CC)Nc1nc(Nc2ccc3c(c2)COB3O)ncc1C [5-((5-methyl-4-(pentan-3-ylamino)pyrimidin-2-yl)amino)benzo[c][1,2]oxaborol-1(3H)-ol] |  | +
CCC(CC)Oc1nc(Nc2ccc3c(c2)COB3O)ncc1C [5-((5-methyl-4-(pentan-3-yloxy)pyrimidin-2-yl)amino)benzo[c][1,2]oxaborol-1(3H)-ol] |  | +
CCC(CC)Sc1nc(Nc2ccc3c(c2)COB3O)ncc1C [5-((5-methyl-4-(pentan-3-ylthio)pyrimidin-2-yl)amino)benzo[c][1,2]oxaborol-1(3H)-ol] |  | +
Cc1cnc(Nc2ccc3c(c2)COB3O)nc1Nc1ccccc1 [5-((5-methyl-4-(phenylamino)pyrimidin-2-yl)amino)benzo[c][1,2]oxaborol-1(3H)-ol] |  | +
CCCNc1nc(Nc2ccc3c(c2)COB3O)ncc1C [5-((5-methyl-4-(propylamino)pyrimidin-2-yl)amino)benzo[c][1,2]oxaborol-1(3H)-ol] |  | +
CCC(CC)Nc1nc(Nc2cc(F)c3c(c2)COB3O)ncc1C(F)(F)F [7-fluoro-5-((4-(pentan-3-ylamino)-5-(trifluoromethyl)pyrimidin-2-yl)amino)benzo[c][1,2]oxaborol-1(3H)-ol] |  | +
CCC(CC)Nc1nc(Nc2cc(F)c3c(c2)COB3O)ncc1C [7-fluoro-5-((5-methyl-4-(pentan-3-ylamino)pyrimidin-2-yl)amino)benzo[c][1,2]oxaborol-1(3H)-ol] |  | +
Cc1cnc(Nc2cc(F)c3c(c2)COB3O)nc1Nc1ccccc1 [7-fluoro-5-((5-methyl-4-(phenylamino)pyrimidin-2-yl)amino)benzo[c][1,2]oxaborol-1(3H)-ol] |  | +
Cc1cnc(N(C)c2ccc3c(c2)COB3O)nc1OC1CCCCC1 [drawing 151, 5-((4-(cyclohexyloxy)-5-methylpyrimidin-2-yl)(methyl)amino)benzo[c][1,2]oxaborol-1(3H)-ol] |  | +
CCOC(=O)c1cccc(Nc2nc(Nc3ccc4c(c3)COB4O)ncc2C)c1 [ethyl 3-((2-((1-hydroxy-1,3-dihydrobenzo[c][1,2]oxaborol-5-yl)amino)-5-methylpyrimidin-4-yl)amino)benzoate] |  | +
